According to PubChem BioAssay AID212 (DTP/NCI, 2004):
Values joined by “and” are separate entries in the source; they are usually repeats but may differ in a detail not shown here. Identical values can stand only once. Records with an inconclusive call do not appear.

Test system: BDF1 mice, colon carcinoma 38 sc, T/C %
Test: NCI In Vivo Anticancer Drug Screen. Data for tumor model Colon Carcinoma 38 (subcutaneous) in B6D2F1 (BDF1) mice
Details: endpoint: median tumor weight (est.), schedule: Q07DX002 (ip), higher = larger tumour
Method in brief: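 Transplantable tumor in mice; compound-treated vs vehicle-dosed controls. Measured survival or tumor size; value = T ÷ C.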

[1] = dose: 100.0 mg/kg/injection, vehicle: saline
[2] = dose: 200.0 mg/kg/injection, vehicle: saline
[3] = dose: 12.5 mg/kg/injection, vehicle: saline
[4] = dose: 25.0 mg/kg/injection, vehicle: saline
[5] = dose: 28.0 mg/kg/injection, vehicle: Klucel (hydroxypropylcellulose) (HPC)
[6] = dose: 112.0 mg/kg/injection, vehicle: Klucel (hydroxypropylcellulose) (HPC)
[7] = dose: 225.0 mg/kg/injection, vehicle: Klucel (hydroxypropylcellulose) (HPC)
[8] = dose: 25.0 mg/kg/injection, vehicle: saline with Tween-80
[9] = dose: 50.0 mg/kg/injection, vehicle: saline with Tween-80
[10] = dose: 100.0 mg/kg/injection, vehicle: saline with Tween-80
[11] = dose: 200.0 mg/kg/injection, vehicle: saline with Tween-80
[12] = dose: 400.0 mg/kg/injection, vehicle: saline
[13] = dose: 25.0 mg/kg/injection, vehicle: Klucel (hydroxypropylcellulose) (HPC)
[14] = dose: 50.0 mg/kg/injection, vehicle: Klucel (hydroxypropylcellulose) (HPC)
[15] = dose: 200.0 mg/kg/injection, vehicle: Klucel (hydroxypropylcellulose) (HPC)
[16] = dose: 400.0 mg/kg/injection, vehicle: Klucel (hydroxypropylcellulose) (HPC)
[17] = dose: 50.0 mg/kg/injection, vehicle: suspension in saline
[18] = dose: 100.0 mg/kg/injection, vehicle: suspension in saline
[19] = dose: 200.0 mg/kg/injection, vehicle: suspension in saline
[20] = dose: 400.0 mg/kg/injection, vehicle: suspension in saline
[21] = dose: 50.0 mg/kg/injection, vehicle: saline
[22] = dose: 12.5 mg/kg/injection, vehicle: saline with Tween-80
[23] = dose: 100.0 mg/kg/injection, vehicle: water
[24] = dose: 200.0 mg/kg/injection, vehicle: water
[25] = dose: 12.5 mg/kg/injection, vehicle: Klucel (hydroxypropylcellulose) (HPC)
[26] = dose: 100.0 mg/kg/injection, vehicle: Klucel (hydroxypropylcellulose) (HPC)

For `O=c1n[n+]([O-])ccn1C1OC(CO)C(O)C1O` (stereo not given), the T/C [1] was 160 % of control, the T/C [2] was 117 % of control and the T/C (dose: 600.0 mg/kg/injection, vehicle: saline) was 73 % of control.
For `N=C(N)CCCCCCCCC(=N)N`, the T/C (dose: 1.56 mg/kg/injection, vehicle: saline) was 102 % of control, the T/C (dose: 3.12 mg/kg/injection, vehicle: saline) was 88 % of control and 99 % of control and the T/C (dose: 6.25 mg/kg/injection, vehicle: saline) was 107 % of control. The T/C [3] was 76 % of control and the T/C [4] was 112 % of control.
`CC(=O)N(C)C` was tested, and the T/C (dose: 225.0 mg/kg/injection, vehicle: saline) was 123 % of control, the T/C (dose: 900.0 mg/kg/injection, vehicle: saline) was 111 % of control and 100 % of control and the T/C (dose: 1800.0 mg/kg/injection, vehicle: saline) was 62 % of control and 84 % of control. For the same compound, the T/C (dose: 3600.0 mg/kg/injection, vehicle: saline) was 46 % of control and 65 % of control.
`CCCCCCC/C=C/C(=O)OC1C(OC2C(OC(CCCCCCC)CC(=O)OC(CCCCCCC)CC(=O)O)OC(C)C(O)C2O)OC(C)C(O)C1O` (stereo not given) was tested, and the T/C [5] was 79 % of control, the T/C [6] was 123 % of control and the T/C [7] was 42 % of control.
For `C[C@H](CCC[C@H](C)OS(=O)(=O)c1ccccc1)OS(=O)(=O)c1ccccc1`, the T/C [8] was 89 % of control and 91 % of control, the T/C [9] was 91 % of control and 98 % of control and the T/C [10] was 82 % of control. The T/C [11] was 120 % of control and 100 % of control, the T/C (dose: 400.0 mg/kg/injection, vehicle: saline with Tween-80) was 118 % of control and the T/C (dose: 800.0 mg/kg/injection, vehicle: saline with Tween-80) was 116 % of control.
`OCC12COCN1COC2` was tested, and the T/C [4] was 82 % of control and 86 % of control, the T/C [12] was 85 % of control and 97 % of control and the T/C (dose: 800.0 mg/kg/injection, vehicle: saline) was 91 % of control.
For `NC(=O)c1ncn(C2OC(CO)C(O)C2O)c1O` (stereo not given), the T/C [13] was 118 % of control, the T/C [5] was 51 % of control and the T/C [14] was 90 % of control. The T/C (dose: 56.0 mg/kg/injection, vehicle: Klucel (hydroxypropylcellulose) (HPC)) was 48 % of control, the T/C [6] was 79 % of control and the T/C [15] was 114 % of control and 98 % of control. For the same compound, the T/C [7] was 68 % of control, the T/C [16] was 105 % of control and 107 % of control and the T/C (dose: 450.0 mg/kg/injection, vehicle: Klucel (hydroxypropylcellulose) (HPC)) was 61 % of control. The T/C (dose: 800.0 mg/kg/injection, vehicle: Klucel (hydroxypropylcellulose) (HPC)) was 75 % of control and the T/C (dose: 900.0 mg/kg/injection, vehicle: Klucel (hydroxypropylcellulose) (HPC)) was 61 % of control.
In the case of `Nc1nc2n[nH]nc2c(=O)[nH]1`, the T/C [17] is reported as 64 % of control, the T/C [18] is reported as 80 % of control and the T/C [19] is reported as 57 % of control. For the same compound, the T/C [20] was 51 % of control.
`NCCCC(N)(C(=O)O)C(F)F` (stereo not given) was tested, and the T/C (dose: 100.0 mg/kg/injection, vehicle: distilled water + alcohol) was 124 % of control, the T/C (dose: 200.0 mg/kg/injection, vehicle: distilled water + alcohol) was 107 % of control and the T/C (dose: 400.0 mg/kg/injection, vehicle: distilled water + alcohol) was 113 % of control and 124 % of control. The T/C (dose: 800.0 mg/kg/injection, vehicle: distilled water + alcohol) was 124 % of control and the T/C (dose: 1600.0 mg/kg/injection, vehicle: distilled water + alcohol) was 123 % of control and 100 % of control.
For `CCc1ncnc2cc(OCC3CO3)c(OC)cc12` (stereo not given), the T/C [4] was 93 % of control and the T/C [21] was 47 % of control.
With `O=C1C=CC(=O)O1` (tested in a mixture with another compound) the T/C [3] was 155 % of control, the T/C [4] was 106 % of control and the T/C [21] was 90 % of control. For the same compound, the T/C [1] was 100 % of control, the T/C [2] was 86 % of control and the T/C [12] was 86 % of control.
With `O=C(O)/C=C/C(=O)N1Cc2cc3ccccc3nc2C1` the T/C [22] was 84 % of control, the T/C [9] was 89 % of control and the T/C [10] was 173 % of control. The T/C [11] was 104 % of control.
In the case of `Nc1ncnc2c1nnn2C1OC(CO)C(O)C1O` (stereo not given), the T/C [16] is reported as 45 % of control.
In the case of `O=C(O)c1c2c(nc3ccccc13)Cc1ccccc1-2`, the T/C (dose: 12.5 mg/kg/injection, vehicle: water) is reported as 121 % of control and 100 % of control, the T/C [23] is reported as 99 % of control and the T/C [24] is reported as 62 % of control.
With `O=C(NO)c1ccc(O)c(O)c1` the T/C (dose: 50.0 mg/kg/injection, vehicle: water) was 88 % of control, the T/C [23] was 92 % of control and the T/C [24] was 85 % of control. The T/C (dose: 400.0 mg/kg/injection, vehicle: water) was 48 % of control.
`CCOC(=O)CC(SP(=S)(OC)OC)C(=O)OCC` (stereo not given) was tested, and the T/C [17] was 114 % of control, the T/C (dose: 56.0 mg/kg/injection, vehicle: saline with Tween-80) was 67 % of control and the T/C [18] was 119 % of control. For the same compound, the T/C (dose: 112.0 mg/kg/injection, vehicle: saline with Tween-80) was 102 % of control, the T/C [19] was 49 % of control and the T/C (dose: 225.0 mg/kg/injection, vehicle: saline with Tween-80) was 88 % of control. For the same compound, the T/C [20] was 69 % of control.
With `CC(=O)O[C@H]1C(=O)[C@@]2(C)[C@H]([C@H](OC(=O)c3ccccc3)[C@]3(O)C[C@H](OC(=O)[C@H](O)[C@@H](NC(=O)c4ccccc4)c4ccccc4)C(C)=C1C3(C)C)[C@]1(OC(C)=O)CO[C@@H]1C[C@@H]2O` the T/C (dose: 7.5 mg/kg/injection, vehicle: Klucel (hydroxypropylcellulose) (HPC)) was 69 % of control, the T/C (dose: 30.0 mg/kg/injection, vehicle: Klucel (hydroxypropylcellulose) (HPC)) was 88 % of control and the T/C (dose: 60.0 mg/kg/injection, vehicle: Klucel (hydroxypropylcellulose) (HPC)) was 106 % of control.
With `COc1ccc(C(=O)/C(Br)=C/C(=O)O)cc1` the T/C (dose: 4.0 mg/kg/injection, vehicle: saline) was 104 % of control, the T/C (dose: 8.0 mg/kg/injection, vehicle: saline) was 98 % of control and the T/C (dose: 16.0 mg/kg/injection, vehicle: saline) was 104 % of control. The T/C (dose: 32.0 mg/kg/injection, vehicle: saline) was 71 % of control.
For `C1CNCOC1`, the T/C [4] was 108 % of control and the T/C [1] was 115 % of control.
`N#Cc1nc(C#N)c(Sc2ccccc2)c(Sc2ccccc2)c1Sc1ccccc1` was tested, and the T/C (dose: 6.25 mg/kg/injection, vehicle: saline with Tween-80) was 93 % of control, the T/C [22] was 30 % of control and the T/C [8] was 67 % of control. The T/C [9] was 78 % of control, the T/C [10] was 92 % of control and the T/C [11] was 54 % of control.
In the case of `CC(C)(C)C1CCCCC1`, the T/C [25] is reported as 100 % of control, the T/C [13] is reported as 124 % of control and the T/C [26] is reported as 104 % of control. For the same compound, the T/C [15] was 77 % of control.
With `CCN(CC)CCOC(=O)Cc1cc(OC)cc2c(=O)cc(-c3ccccc3)oc12` the T/C [25] was 65 % of control, the T/C [13] was 82 % of control and the T/C [14] was 56 % of control. The T/C [26] was 111 % of control and the T/C [15] was 104 % of control.
